# Where two headings read alike, the source gives them in different places.
# Columns and labels:
# [1] = system: resistant green rice leafhoppers (R); conditions: ratio of the resistant strain to the susceptible strain (LD50); 1440 min
# Procedure: (1) A 20-mg portion of a given test compound was weighed out and dissolved in 10 ml of acetone. The resultant solution was diluted at proper times with acetone.
# (2) With a micro-syringe, the acetone solution of the test compound was topically applied to the thoracic region of female green rice leafhoppers at a fixed dose of 0.2 μl per head.
# (3) The female green rice leafhoppers thus treated were placed in a plastic cup prepared in advance (measuring 7 cm in diameter and 3.5 cm in depth and containing rice seeds) and kept at a constant temperature of 26±1° C. After 24 hours' standing, the dead insects were counted.
# In the case of a mixed insecticide, the LD50 was shown as a total dosage.
# [2] = system: green rice leafhoppers of the strain RN; assay: Test Example 3: dust spray test (20 mesh metal gauze cylinder); type: in vivo, Nephotettix cincticeps; conditions: for mortality at 100 mg/cylinder / mortality at 250 mg/cylinder: 24 hr; for death ratio (%), mixture with Compound No. 1 / death ratio (%), mixture with Compound No. 6* / death ratio (%), mixture with Compound No. 24* / death ratio (%), mixture with Compound No. 35* / death ratio (%), mixture with Compound No. 40* / death ratio (%), mixture with Compound No. 49* / death ratio (%), mixture with Compound No. 81* / death ratio (%), mixture with Compound No. 118* / death ratio (%), mixture with Carbofuran / death ratio (%), mixture with Methomyl: Table 9, RN; for death ratio (%), mixture with Compound No. 1: dust mixed with 1; for death ratio (%), mixture with Compound No. 6*: dust mixed with 6*; for death ratio (%), mixture with Compound No. 24*: dust mixed with 24*; for death ratio (%), mixture with Compound No. 35*: dust mixed with 35*; for death ratio (%), mixture with Compound No. 40*: dust mixed with 40*; for death ratio (%), mixture with Compound No. 49*: dust mixed with 49*; for death ratio (%), mixture with Compound No. 81*: dust mixed with 81*; for death ratio (%), mixture with Compound No. 118*: dust mixed with 118*; for death ratio (%), mixture with Carbofuran: dust mixed with Carbofuran; for death ratio (%), mixture with Methomyl: dust mixed with Methomyl; for Effect of individual compound (RN), death ratio (%) (Table 9): dust, compound alone, RN strain
# Procedure: The insecticides in the form of dust were tested for insecticidal activity.
# The test for insecticidal activity was performed by the following procedure. […] The dust of a test compound (pulverized by means of a shaking pulverizer made by Taira Kosakusho, Ltd.) was applied onto the tube contents at a prescribed rate by spraying from outside the metal gauze by means of a bell-jar duster. The dust of the test compound was prepared uniformly mixing 2 parts of the dust of the individual compound or 1 part each of the dusts of the mixture components (total 2 parts) and 98 parts of a carrier obtained by mixing talc and clay in equal volumes.
# [3] = 2% dust, 100 mg, read-out: Mortality (%) after 24 hr., 100 mg Spray (Table 7)
# [4] = 2% dust, 250 mg, read-out: Mortality (%) after 24 hr., 250 mg Spray (Table 7)
# [5] = Table 8, dust 100 mg, read-out: Mortality (%) after 24 hr., Spray Volume 100 mg
# [6] = Table 8, dust 250 mg, read-out: Mortality (%) after 24 hr., Spray Volume 250 mg
smiles,measurement,setting,value
"C=CCNC(=O)Oc1ccc(C)c(C)c1 [Compound 39, 3,4-dimethylphenyl-N-allylcarbamate]",Insecticidal Activity R/S (resistant ratio),[1],0.8
same,mortality at 100 mg/cylinder,[2]; [3],50%
same,mortality at 250 mg/cylinder,[2]; [4],60%
"CCCNC(=O)Oc1cccc(C(C)(C)C)c1 [Compound 33, 3-tert-butylphenyl-N-n-propylcarbamate]",Insecticidal Activity R/S (resistant ratio),[1],1.5
"CCNC(=O)Oc1ccccc1OC(C)C [Compound 82, 2-isopropoxyphenyl-N-ethylcarbamate]","death ratio (%), mixture with Compound No. 1",[2],25.0%
same,"death ratio (%), mixture with Compound No. 6*",[2],50.0%
same,"death ratio (%), mixture with Compound No. 24*",[2],45.0%
same,"death ratio (%), mixture with Compound No. 35*",[2],60.0%
same,"death ratio (%), mixture with Compound No. 40*",[2],45.0%
same,"death ratio (%), mixture with Compound No. 49*",[2],15.0%
same,"death ratio (%), mixture with Compound No. 81*",[2],55.0%
same,"death ratio (%), mixture with Compound No. 118*",[2],80.0%
same,"death ratio (%), mixture with Carbofuran",[2],80.0%
same,"death ratio (%), mixture with Methomyl",[2],85.0%
same,"Effect of individual compound (RN), death ratio (%) (Table 9)",[2],15.0%
"CNC(=O)Oc1cc(C)c(N(C)C)c(C)c1 [Compound 118, 4-dimethylamino-3,5-dimethylphenyl-N-methylcarbamate, reference compound]","Effect of individual compound (RN), death ratio (%) (Table 9)",[2],23.4%
"C=CCNC(=O)Oc1cc(C)cc(C)c1 [Compound 44, 3,5-dimethylphenyl-N-allylcarbamate]",Insecticidal Activity R/S (resistant ratio),[1],0.9
same,mortality at 100 mg/cylinder,[2]; [3],60%
same,mortality at 250 mg/cylinder,[2]; [4],80%
"CCCNC(=O)Oc1ccccc1OCC [Compound 80, 2-ethoxyphenyl-N-n-propylcarbamate]","death ratio (%), mixture with Compound No. 1",[2],65.0%
same,"death ratio (%), mixture with Compound No. 6*",[2],60.0%
same,"death ratio (%), mixture with Compound No. 24*",[2],57.5%
same,"death ratio (%), mixture with Compound No. 35*",[2],65.0%
same,"death ratio (%), mixture with Compound No. 40*",[2],55.0%
same,"death ratio (%), mixture with Compound No. 49*",[2],15.0%
same,"death ratio (%), mixture with Compound No. 81*",[2],60.0%
same,"death ratio (%), mixture with Compound No. 118*",[2],70.0%
same,"death ratio (%), mixture with Carbofuran",[2],85.0%
same,"death ratio (%), mixture with Methomyl",[2],75.0%
same,"Effect of individual compound (RN), death ratio (%) (Table 9)",[2],0%
"CNC(=O)ON=C(C)SC [Methomyl, 1(methylthio)ethylideneamino-N-methylcarbamate, reference compound]","Effect of individual compound (RN), death ratio (%) (Table 9)",[2],35.0%
"CCCNC(=O)Oc1cc(C)cc(C(C)C)c1 [Compound 47, 3-methyl-5-isopropylphenyl-N-n-propylcarbamate]",Insecticidal Activity R/S (resistant ratio),[1],1.4
same,mortality at 100 mg/cylinder,[2]; [3],70%
same,mortality at 250 mg/cylinder,[2]; [4],100%
"CCCNC(=O)Oc1ccccc1OC [Compound 77, 2-methoxyphenyl-N-n-propylcarbamate]","death ratio (%), mixture with Compound No. 1",[2],95.0%
same,"death ratio (%), mixture with Compound No. 6*",[2],100%
same,"death ratio (%), mixture with Compound No. 24*",[2],100%
same,"death ratio (%), mixture with Compound No. 35*",[2],100%
same,"death ratio (%), mixture with Compound No. 40*",[2],95.0%
same,"death ratio (%), mixture with Compound No. 49*",[2],50.0%
same,"death ratio (%), mixture with Compound No. 81*",[2],80.0%
same,"death ratio (%), mixture with Compound No. 118*",[2],100%
same,"death ratio (%), mixture with Carbofuran",[2],100%
same,"death ratio (%), mixture with Methomyl",[2],100%
same,"Effect of individual compound (RN), death ratio (%) (Table 9)",[2],45.0%
"CCNC(=O)Oc1cc(C)cc(C(C)C)c1 [Compound 46, 3-methyl-5-isopropylphenyl-N-ethylcarbamate]",Insecticidal Activity R/S (resistant ratio),[1],0.9
same,mortality at 100 mg/cylinder,[2]; [3],45%
same,mortality at 250 mg/cylinder,[2]; [4],70%
"CCCNC(=O)Oc1cccc(C(C)C)c1 [Compound 13, 3-isopropylphenyl-N-n-propylcarbamate]",Insecticidal Activity R/S (resistant ratio),[1],1.4
"CCCNC(=O)Oc1cccc(CC)c1 [Compound 31, 3-ethylphenyl-N-n-propylcarbamate]",Insecticidal Activity R/S (resistant ratio),[1],0.5
"C=CCNC(=O)Oc1ccccc1C(C)C [Compound 5, 2-isopropylphenyl-N-allylcarbamate]",Insecticidal Activity R/S (resistant ratio),[1],3.1
"CNC(=O)Oc1cc(C)cc(C(C)C)c1 [Compound 45, 3-methyl-5-isopropylphenyl-N-methylcarbamate, reference compound]",Insecticidal Activity R/S (resistant ratio),[1],11.6
same,mortality at 100 mg/cylinder,[2]; [3],0%
same,mortality at 250 mg/cylinder,[2]; [4],10%
"CNC(=O)Oc1cccc2c1OC(C)(C)C2 [Carbofuran, 2,3dihydro-2,2-dimethyl-benzofuran-7-yl-N-methylcarbamate, reference compound]","Effect of individual compound (RN), death ratio (%) (Table 9)",[2],40.0%
CCCCNC(=O)Oc1ccccc1OC(C)C [Compound 84],"death ratio (%), mixture with Compound No. 1",[2],0%
same,"death ratio (%), mixture with Compound No. 6*",[2],15.0%
same,"death ratio (%), mixture with Compound No. 24*",[2],5.0%
same,"death ratio (%), mixture with Compound No. 35*",[2],10.0%
same,"death ratio (%), mixture with Compound No. 40*",[2],5.0%
same,"death ratio (%), mixture with Compound No. 49*",[2],0%
same,"death ratio (%), mixture with Compound No. 81*",[2],100%
same,"death ratio (%), mixture with Compound No. 118*",[2],67.5%
same,"death ratio (%), mixture with Carbofuran",[2],55.0%
same,"death ratio (%), mixture with Methomyl",[2],70.0%
same,"Effect of individual compound (RN), death ratio (%) (Table 9)",[2],0%
"CCNC(=O)Oc1ccccc1C(C)CC (centres unmarked) [Compound 7, 2-sec-butylphenyl-N-ethylcarbamate]",Insecticidal Activity R/S (resistant ratio),[1],2.6
"CNC(=O)Oc1cc(C)cc(C)c1 [Compound 40, 3,5-dimethylphenyl-N-methylcarbamate, reference compound]",Insecticidal Activity R/S (resistant ratio),[1],5.3
same,mortality at 100 mg/cylinder,[2]; [3],5%
same,mortality at 250 mg/cylinder,[2]; [4],15%
same,mortality at 100 mg/cylinder,[2]; [5],5%
same,mortality at 250 mg/cylinder,[2]; [6],15%
same,"Effect of individual compound (RN), death ratio (%) (Table 9)",[2],0%
"C=CCNC(=O)Oc1ccccc1OC(C)C [Compound 85, 2-isopropoxyphenyl-N-allylcarbamate]","death ratio (%), mixture with Compound No. 1",[2],50.0%
same,"death ratio (%), mixture with Compound No. 6*",[2],45.0%
same,"death ratio (%), mixture with Compound No. 24*",[2],35.0%
same,"death ratio (%), mixture with Compound No. 35*",[2],75.0%
same,"death ratio (%), mixture with Compound No. 40*",[2],60.0%
same,"death ratio (%), mixture with Compound No. 49*",[2],0%
same,"death ratio (%), mixture with Compound No. 81*",[2],80.0%
same,"death ratio (%), mixture with Compound No. 118*",[2],35.0%
same,"death ratio (%), mixture with Carbofuran",[2],85.0%
same,"death ratio (%), mixture with Methomyl",[2],90.0%
same,"Effect of individual compound (RN), death ratio (%) (Table 9)",[2],25.0%
"CNC(=O)Oc1cccc(C)c1 [Compound 24, 3-methylphenyl-N-methylcarbamate, reference compound]",Insecticidal Activity R/S (resistant ratio),[1],9.9
same,mortality at 100 mg/cylinder,[2]; [3],0%
same,mortality at 250 mg/cylinder,[2]; [4],20%
same,mortality at 100 mg/cylinder,[2]; [5],0%
same,mortality at 250 mg/cylinder,[2]; [6],20%
same,"Effect of individual compound (RN), death ratio (%) (Table 9)",[2],0%
"C=CCNC(=O)Oc1ccccc1C(C)CC (centres unmarked) [Compound 10, 2-sec-butylphenyl-N-allylcarbamate]",Insecticidal Activity R/S (resistant ratio),[1],4.3
same,mortality at 250 mg/cylinder,[2]; [4],100%
"CCNC(=O)Oc1cccc(C)c1 [Compound 25, 3-methylphenyl-N-ethylcarbamate]",Insecticidal Activity R/S (resistant ratio),[1],3.7
"CCCNC(=O)Oc1cccc(OCC)c1 [Compound 94, 3-ethoxyphenyl-N-n-propylcarbamate]","death ratio (%), mixture with Compound No. 1",[2],80.0%
same,"death ratio (%), mixture with Compound No. 6*",[2],85.0%
same,"death ratio (%), mixture with Compound No. 24*",[2],95.0%
same,"death ratio (%), mixture with Compound No. 35*",[2],95.0%
same,"death ratio (%), mixture with Compound No. 40*",[2],85.0%
same,"death ratio (%), mixture with Compound No. 49*",[2],35.0%
same,"death ratio (%), mixture with Compound No. 81*",[2],95.0%
same,"death ratio (%), mixture with Compound No. 118*",[2],95.0%
same,"death ratio (%), mixture with Carbofuran",[2],90.0%
same,"death ratio (%), mixture with Methomyl",[2],100%
same,"Effect of individual compound (RN), death ratio (%) (Table 9)",[2],0%
